Data from ChEMBL document CHEMBL6096697, “Structure-Guided Discovery of Novel N4-(Substituted Thiazol-2-yl)-N2-(4-Substituted phenyl)pyrimidine-2,4-Diamines as Potent CDK2 and CDK9 Dual Inhibitors with High Oral Bioavailability” (J Med Chem, 2025).

Tests used:
[1] = Inhibition of CDK9/cyclin T (unknown origin) using […] incubated for 40 mins in presence of ATP by Kinase-Glo assay; design: species or system Homo sapiens
[2] = biological target: Cyclin-dependent kinase 2/cyclin A (Homo sapiens, UniProt P24941); experiment: Inhibition of CDK2/cyclin A (unknown origin) using […] incubated for 40 mins in presence of ATP by Kinase-Glo assay; format: protein-complex assay
[3] = system: HCT-116; experiment: Cytotoxicity against human HCT-116 cells assessed as cell growth inhibition incubated for 48 hrs by MTT assay; format: functional, cell-based; details: HCT-116, 48 h
[4] = biological target: Cyclin-dependent kinase 2/cyclin A (Homo sapiens) (UniProt P24941+P20248+P78396); experiment: Inhibition of CDK2/cyclin A (unknown origin) using […] at 1 uM incubated for 40 mins in presence of ATP by Kinase-Glo assay relative to control; format: protein-complex assay
[5] = biological target: CDK9/cyclin T1 (Homo sapiens) (UniProt O60563+P50750); experiment: Inhibition of CDK9/cyclin T (unknown origin) using […] at 1 uM incubated for 40 mins in presence of ATP by Kinase-Glo assay relative to control; format: protein-complex assay
[6] = system: A2780; experiment: Antiproliferative activity against human A2780 cells assessed as cell growth inhibition incubated for 48 hrs by MTT assay; format: functional, cell-based; details: A2780, 48 h
[7] = system: A549; experiment: Antiproliferative activity against human A549 cells assessed as cell growth inhibition incubated for 48 hrs by MTT assay; format: functional, cell-based; details: A549, 48 h
[8] = species: Homo sapiens; experiment: Inhibition of c-Src (unknown origin) at 1 uM relative to control
[9] = system: U-87 MG; experiment: Antiproliferative activity against human U-87 MG cells assessed as cell growth inhibition incubated for 48 hrs by MTT assay; format: functional, cell-based, U-87MG ATCC
[10] = Antiproliferative activity against HEK293 cells assessed as cell growth inhibition incubated for 48 hrs by MTT assay; format: toxicity, cell-based; details: human
[11] = system: MV4-11; experiment: Antiproliferative activity against human MV4-11 cells assessed as cell growth inhibition incubated for 48 hrs by MTT assay; format: functional, cell-based; details: MV4-11, 48 h
[12] = biological target: Glycogen synthase kinase-3 alpha (Homo sapiens) (UniProt P49840); experiment: Inhibition of GSK3-alpha (unknown origin) at 1 uM relative to control
Chain of Glycogen synthase kinase-3 alpha (Homo sapiens) (P49840 2-483 limits assumed): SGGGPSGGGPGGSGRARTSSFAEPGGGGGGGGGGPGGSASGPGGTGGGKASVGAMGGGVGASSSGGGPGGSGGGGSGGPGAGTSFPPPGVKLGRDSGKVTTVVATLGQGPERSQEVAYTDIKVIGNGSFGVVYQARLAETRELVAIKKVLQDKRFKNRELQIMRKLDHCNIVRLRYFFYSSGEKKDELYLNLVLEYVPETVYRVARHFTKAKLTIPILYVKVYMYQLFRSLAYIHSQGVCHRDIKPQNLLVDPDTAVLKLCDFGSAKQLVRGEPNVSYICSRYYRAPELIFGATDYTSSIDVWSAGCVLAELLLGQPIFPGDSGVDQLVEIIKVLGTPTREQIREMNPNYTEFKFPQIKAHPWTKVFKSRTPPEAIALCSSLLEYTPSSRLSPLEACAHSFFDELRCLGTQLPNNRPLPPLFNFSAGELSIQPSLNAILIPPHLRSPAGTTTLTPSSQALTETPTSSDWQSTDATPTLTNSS

[13] = biological target: Aurora kinase A (Homo sapiens) (UniProt O14965); experiment: Inhibition of Aurora A (unknown origin) at 1 uM relative to control
Chain of Aurora kinase A (Homo sapiens) (O14965 whole entry): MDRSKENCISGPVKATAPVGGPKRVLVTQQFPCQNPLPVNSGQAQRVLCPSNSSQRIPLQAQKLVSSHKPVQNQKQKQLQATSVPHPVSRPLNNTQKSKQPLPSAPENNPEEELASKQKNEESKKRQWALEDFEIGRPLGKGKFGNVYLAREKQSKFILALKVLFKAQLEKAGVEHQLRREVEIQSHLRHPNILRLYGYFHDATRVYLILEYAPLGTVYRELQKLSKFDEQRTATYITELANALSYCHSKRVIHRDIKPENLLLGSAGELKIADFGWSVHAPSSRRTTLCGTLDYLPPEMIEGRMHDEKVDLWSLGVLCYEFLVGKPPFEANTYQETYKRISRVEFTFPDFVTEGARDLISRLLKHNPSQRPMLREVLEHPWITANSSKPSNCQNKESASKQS

[14] = system: MDA-MB-231; experiment: Antiproliferative activity against human MDA-MB-231 cells assessed as cell growth inhibition incubated for 48 hrs by MTT assay; format: functional, cell-based; details: MDA-MB-231, 48 h
[15] = system: HepG2; experiment: Antiproliferative activity against human HepG2 cells assessed as cell growth inhibition incubated for 48 hrs by MTT assay; format: functional, cell-based; details: HepG2, 48 h
[16] = system: HT-29; experiment: Antiproliferative activity against human HT-29 cells assessed as cell growth inhibition incubated for 48 hrs by MTT assay; format: functional, cell-based; details: HT-29, 48 h
[17] = system: MCF7; experiment: Antiproliferative activity against human MCF7 cells assessed as cell growth inhibition incubated for 48 hrs by MTT assay; format: functional, cell-based; details: MCF7, 48 h
[18] = system: HeLa; experiment: Antiproliferative activity against human HeLa cells assessed as cell growth inhibition incubated for 48 hrs by MTT assay; format: functional, cell-based
[19] = Inhibition of CDK1/cyclin B (unknown origin) using […] incubated for 40 mins in presence of ATP by Kinase-Glo assay; design: species or system Homo sapiens

IC50 [1] [nM]	IC50 [2] [nM]	inhibition [4] [%]	inhibition [5] [%]	Compound	IC50 [3] [nM]	also measured
89	32	–	–	Cc1cnc(Nc2ccc(S(N)(=O)=O)cc2)nc1Nc1nc(-c2ccc(F)cc2)cs1	6050	–
–	–	47	29	COc1ccc(Nc2nccc(Nc3cc[nH]n3)n2)cc1	> 10000	–
–	470	–	69	CCOC(=O)c1sc(Nc2nc(Nc3ccc(S(N)(=O)=O)cc3)ncc2F)nc1C	9260	–
–	23	–	41	NS(=O)(=O)c1ccc(Nc2ncc(F)c(Nc3nc(-c4ccc(F)cc4)cs3)n2)cc1	5260	–
–	53	–	84	COC(=O)c1sc(Nc2nc(Nc3ccc(S(N)(=O)=O)cc3)ncc2C)nc1C	> 10000	–
–	–	85	19	CNS(=O)(=O)c1ccc(Nc2ncc(C)c(Nc3nccs3)n2)cc1	> 10000	–
1840	910	–	–	COc1ccc(Nc2nccc(Nc3nccs3)n2)cc1	2230	–
–	–	72	75	COc1cnc(Nc2ccc(S(N)(=O)=O)cc2)nc1Nc1ncc(C)s1	9760	–
–	43	–	46	COCCNS(=O)(=O)c1ccc(Nc2ncc(C)c(Nc3nccs3)n2)cc1	7420	–
–	110	–	65	NS(=O)(=O)c1ccc(Nc2nccc(Nc3nc(-c4ccc(F)cc4)cs3)n2)cc1	4400	–
–	–	30	49	COc1cc(Nc2nccc(Nc3nccs3)n2)cc(OC)c1OC	> 10000	–
–	12	–	66	Cc1cnc(Nc2nc(Nc3ccc(S(N)(=O)=O)cc3)ncc2F)s1	910	–
–	11	–	51	NS(=O)(=O)c1ccc(Nc2ncc(F)c(Nc3nc(C4CC4)cs3)n2)cc1	7850	–
–	–	9	6	Fc1ccc(Nc2nccc(Nc3nccs3)n2)cc1	> 10000	–
–	–	59	63	CC(C)c1ccc(-c2csc(Nc3ccnc(Nc4ccc(S(N)(=O)=O)cc4)n3)n2)cc1	6430	–
–	–	79	40	CCOC(=O)c1cnc(Nc2nc(Nc3ccc(S(N)(=O)=O)cc3)ncc2F)s1	7500	–
–	26	–	4	Cc1cnc(Nc2ccc(S(=O)(=O)N3CCCCC3)cc2)nc1Nc1nccs1	3050	–
294	11	–	–	Cc1cnc(Nc2ccc(S(N)(=O)=O)cc2)nc1Nc1nc(C(C)C)cs1	5820	–
–	–	60	21	COc1ccc(Nc2nccc(Nc3ncco3)n2)cc1	> 10000	–
–	–	81	83	CCOC(=O)c1sc(Nc2nc(Nc3ccc(S(N)(=O)=O)cc3)ncc2C)nc1C	> 10000	–
–	–	67	31	COC(=O)c1sc(Nc2ccnc(Nc3ccc(S(N)(=O)=O)cc3)n2)nc1C	8720	–
124	52	–	–	NS(=O)(=O)c1ccc(Nc2nccc(Nc3nccs3)n2)cc1	1380	–
–	–	81	31	Cc1cnc(Nc2ccc(S(=O)(=O)NC(C)C)cc2)nc1Nc1nccs1	> 10000	–
–	–	36	32	CCOC(=O)c1cnc(Nc2nc(Nc3ccc(S(N)(=O)=O)cc3)ncc2OC)s1	> 10000	–

IC50 [1] [nM]	IC50 [2] [nM]	inhibition [4] [%]	inhibition [5] [%]	Compound	IC50 [3] [nM]	also measured
38	8	–	–	CC(C)c1csc(Nc2nc(Nc3ccc(S(N)(=O)=O)cc3)ncc2F)n1	3870	–
46	16	–	–	NS(=O)(=O)c1ccc(Nc2nccc(Nc3nc(C4CC4)cs3)n2)cc1	3640	–
470	110	–	–	CS(=O)(=O)c1ccc(Nc2nccc(Nc3nccs3)n2)cc1	9510	–
13	55	–	–	Cc1cnc(Nc2ccc(S(C)(=O)=O)cc2)nc1Nc1nccs1	6090	–
217	10	–	–	NS(=O)(=O)c1ccc(Nc2ncc(F)c(Nc3nccs3)n2)cc1	4040	–
–	5	–	29	Cc1cnc(Nc2ccnc(Nc3ccc(S(N)(=O)=O)cc3)n2)s1	530	–
–	–	65	27	CC(C)c1ccc(-c2csc(Nc3nc(Nc4ccc(S(N)(=O)=O)cc4)ncc3F)n2)cc1	> 10000	–
–	–	76	62	Cc1cnc(Nc2ccc(S(=O)(=O)NC3CC3)cc2)nc1Nc1nccs1	9620	–
18	–	–	–	Cc1ncc(-c2ccnc(Nc3ccc(S(C)(=O)=O)cc3)n2)n1C(C)C [AZD-5438]	477	IC50 [6]: 1260 nM; IC50 [7]: 1470 nM; inhibition [8]: > 50%; IC50 [9]: > 30000 nM; IC50 at 48 h [10]: 18000 nM; IC50 [11]: 2080 nM; inhibition [12]: > 50%; inhibition [13]: > 50%; IC50 [14]: 151 nM; IC50 [15]: 12400 nM; IC50 [16]: 1160 nM
2	–	78	–	Cc1cnc(Nc2nc(Nc3ccc(S(N)(=O)=O)cc3)ncc2C)s1	692	–
–	27	–	81	CC(C)c1csc(Nc2ccnc(Nc3ccc(S(N)(=O)=O)cc3)n2)n1	7350	–
–	–	44	19	COC(=O)c1sc(Nc2nc(Nc3ccc(S(N)(=O)=O)cc3)ncc2OC)nc1C	> 10000	–
26100	4090	–	–	CCOC(=O)CNc1ccnc(Nc2ccc(OC)cc2)n1	> 10000	IC50 [6]: > 30000 nM; IC50 [7]: > 30000 nM; IC50 [9]: > 30000 nM; IC50 at 48 h [10]: 126000 nM; IC50 [11]: 28100 nM; IC50 [17]: > 30000 nM; IC50 [18]: 29300 nM; IC50 [14]: 32600 nM; IC50 [15]: > 30000 nM; IC50 [19]: > 30000 nM; IC50 [16]: > 30000 nM
–	–	61	18	c1ccc(Nc2nccc(Nc3nccs3)n2)cc1	> 10000	–
51	10	–	–	Cc1csc(Nc2nc(Nc3ccc(S(N)(=O)=O)cc3)ncc2C)n1	3210	–
–	–	82	79	CCOC(=O)c1cnc(Nc2nc(Nc3ccc(S(N)(=O)=O)cc3)ncc2C)s1	4580	–
–	–	79	7	Cc1cnc(Nc2ccc(S(=O)(=O)N3CCOCC3)cc2)nc1Nc1nccs1	> 10000	–
–	–	85	76	Cc1csc(Nc2ccnc(Nc3ccc(S(N)(=O)=O)cc3)n2)n1	> 10000	–
46	5	–	–	Cc1cnc(Nc2ccc(S(N)(=O)=O)cc2)nc1Nc1nc(C2CC2)cs1	6600	–
–	–	17	15	Brc1ccc(Nc2nccc(Nc3nccs3)n2)cc1	6840	–
11	112	–	–	COc1cnc(Nc2ccc(S(N)(=O)=O)cc2)nc1Nc1nccs1	> 10000	–
–	–	84	83	Cc1cnc(Nc2ccc(S(N)(=O)=O)cc2)nc1Nc1nc(-c2ccc(C(C)C)cc2)cs1	3060	–
14	38	–	–	NS(=O)(=O)c1ccc(Nc2nccc(Nc3ncc([N+](=O)[O-])s3)n2)cc1	8830	–
